Measured values published in PubChem BioAssay AID1259407 (Chemical Carcinogenesis Research Information System (CCRIS), 2018).
Active and inactive are the calls of the source. How the calls were made is not given here.

Tested on: CCRIS mutagenicity, Ames/micronucleus/aberration tests
Test: CCRIS mutagenicity studies
[1] = Test System: AMES SALMONELLA TYPHIMURIUM, Strain/Indicator: TA98, Metabolic Activation: NONE, Method: STANDARD PLATE
[2] = Test System: AMES SALMONELLA TYPHIMURIUM, Strain/Indicator: TA100, Metabolic Activation: NONE, Method: PREINCUBATION
[3] = Test System: AMES SALMONELLA TYPHIMURIUM, Strain/Indicator: TA100, Metabolic Activation: NONE, Method: STANDARD PLATE
[4] = Test System: AMES SALMONELLA TYPHIMURIUM, Strain/Indicator: TA98, Metabolic Activation: NONE, Method: PREINCUBATION

**Q.** `N#CC(Cl)Cl` was tested. Which mutagenic call [1] did it give?
**A.** active; positive

**Q.** And the mutagenic call (Test System: AMES SALMONELLA TYPHIMURIUM, Strain/Indicator: TA98, Metabolic Activation: RAT, LIVER, S-9, AROCLOR 1254, Method: STANDARD PLATE)?
**A.** active; positive

**Q.** What about the mutagenic call (Test System: AMES SALMONELLA TYPHIMURIUM, Strain/Indicator: TA98, Metabolic Activation: RAT, LIVER, S-9, PHENOBARBITAL AND 5,6-BENZOFLAVONE, Method: PREINCUBATION) of the same compound?
**A.** inactive; negative

**Q.** What about the mutagenic call (Test System: AMES SALMONELLA TYPHIMURIUM, Strain/Indicator: TA100, Metabolic Activation: NONE, Method: FLUCTUATION TEST) of the same compound?
**A.** active; positive

**Q.** And the mutagenic call [2]?
**A.** active; positive

**Q.** What about the mutagenic call [3] of the same compound?
**A.** active; positive

**Q.** What about the mutagenic call (Test System: AMES SALMONELLA TYPHIMURIUM, Strain/Indicator: TA100, Metabolic Activation: RAT, LIVER, S-9, AROCLOR 1254, Method: FLUCTUATION TEST) of the same compound?
**A.** active; positive

**Q.** What about the mutagenic call (Test System: AMES SALMONELLA TYPHIMURIUM, Strain/Indicator: TA100, Metabolic Activation: RAT, LIVER, S-9, AROCLOR 1254, Method: STANDARD PLATE) of the same compound?
**A.** active; positive

**Q.** What about the mutagenic call (Test System: AMES SALMONELLA TYPHIMURIUM, Strain/Indicator: TA100, Metabolic Activation: RAT, LIVER, S-9, PHENOBARBITAL AND 5,6-BENZOFLAVONE, Method: PREINCUBATION) of the same compound?
**A.** active; positive

**Q.** And the mutagenic call (Test System: AMES SALMONELLA TYPHIMURIUM, Strain/Indicator: TA1535, Metabolic Activation: NONE, Method: STANDARD PLATE)?
**A.** active; positive

**Q.** And the mutagenic call (Test System: AMES SALMONELLA TYPHIMURIUM, Strain/Indicator: TA1535, Metabolic Activation: RAT, LIVER, S-9, AROCLOR 1254, Method: STANDARD PLATE)?
**A.** active; positive

**Q.** Which results are given for `O=S(O)S(=O)O`?
**A.** mutagenic call (Test System: AMES SALMONELLA TYPHIMURIUM, Strain/Indicator: TA97, Metabolic Activation: NONE, Method: PREINCUBATION): inactive; negative; mutagenic call (Test System: AMES SALMONELLA TYPHIMURIUM, Strain/Indicator: TA97, Metabolic Activation: RAT, LIVER, S-9, AROCLOR 1254, Method: PREINCUBATION): inactive; negative; mutagenic call [4]: inactive; negative; mutagenic call (Test System: AMES SALMONELLA TYPHIMURIUM, Strain/Indicator: TA98, Metabolic Activation: RAT LIVER S-9, PHENOBARBITAL AND BETA-NAPHTHOFLAVONE, Method: PREINCUBATION): inactive; negative; mutagenic call (Test System: AMES SALMONELLA TYPHIMURIUM, Strain/Indicator: TA98, Metabolic Activation: RAT, LIVER, S-9, KC 500, Method: PREINCUBATION): inactive; negative; mutagenic call [2]: inactive; negative; mutagenic call (Test System: AMES SALMONELLA TYPHIMURIUM, Strain/Indicator: TA100, Metabolic Activation: RAT LIVER S-9, PHENOBARBITAL AND BETA-NAPHTHOFLAVONE, Method: PREINCUBATION): inactive; negative; mutagenic call (Test System: AMES SALMONELLA TYPHIMURIUM, Strain/Indicator: TA100, Metabolic Activation: RAT, LIVER, S-9, KC 500, Method: PREINCUBATION): inactive; negative; mutagenic call (Test System: AMES SALMONELLA TYPHIMURIUM, Strain/Indicator: TA102, Metabolic Activation: NONE, Method: PREINCUBATION): inactive; negative; mutagenic call (Test System: AMES SALMONELLA TYPHIMURIUM, Strain/Indicator: TA102, Metabolic Activation: RAT, LIVER, S-9, AROCLOR 1254, Method: PREINCUBATION): inactive; negative; mutagenic call (Test System: AMES SALMONELLA TYPHIMURIUM, Strain/Indicator: TA1535, Metabolic Activation: NONE, Method: PREINCUBATION): inactive; negative; mutagenic call (Test System: AMES SALMONELLA TYPHIMURIUM, Strain/Indicator: TA1535, Metabolic Activation: RAT LIVER S-9, PHENOBARBITAL AND BETA-NAPHTHOFLAVONE, Method: PREINCUBATION): inactive; negative; mutagenic call (Test System: AMES SALMONELLA TYPHIMURIUM, Strain/Indicator: TA1535, Metabolic Activation: RAT, LIVER, S-9, KC 500, Method: PREINCUBATION): inactive; negative; mutagenic call (Test System: AMES SALMONELLA TYPHIMURIUM, Strain/Indicator: TA1537, Metabolic Activation: NONE, Method: PREINCUBATION): inactive; negative; mutagenic call (Test System: AMES SALMONELLA TYPHIMURIUM, Strain/Indicator: TA1537, Metabolic Activation: RAT LIVER S-9, PHENOBARBITAL AND BETA-NAPHTHOFLAVONE, Method: PREINCUBATION): inactive; negative; mutagenic call (Test System: AMES SALMONELLA TYPHIMURIUM, Strain/Indicator: TA1537, Metabolic Activation: RAT, LIVER, S-9, KC 500, Method: PREINCUBATION): inactive; negative; mutagenic call (Test System: AMES SALMONELLA TYPHIMURIUM, Strain/Indicator: TA1538, Metabolic Activation: NONE, Method: PREINCUBATION): inactive; negative; mutagenic call (Test System: AMES SALMONELLA TYPHIMURIUM, Strain/Indicator: TA1538, Metabolic Activation: RAT LIVER S-9, PHENOBARBITAL AND BETA-NAPHTHOFLAVONE, Method: PREINCUBATION): inactive; negative; mutagenic call (Test System: AMES SALMONELLA TYPHIMURIUM, Strain/Indicator: TA1538, Metabolic Activation: RAT, LIVER, S-9, KC 500, Method: PREINCUBATION): inactive; negative; mutagenic call (Test System: E. COLI, Strain/Indicator: WP2 UVRA, Metabolic Activation: NONE, Method: PREINCUBATION): inactive; negative; mutagenic call (Test System: E. COLI, Strain/Indicator: WP2UVRA, Metabolic Activation: NONE, Method: PREINCUBATION): inactive; negative; mutagenic call (Test System: E. COLI, Strain/Indicator: WP2UVRA, Metabolic Activation: RAT LIVER S-9, PHENOBARBITAL AND BETA-NAPHTHOFLAVONE, Method: PREINCUBATION): inactive; negative; mutagenic call (Test System: E. COLI, Strain/Indicator: WP2 UVRA, Metabolic Activation: RAT, LIVER, S-9, KC 500, Method: PREINCUBATION): inactive; negative

**Q.** `N=C(N)c1ccc2cc(C(=N)N)[nH]c2c1` was tested. Which mutagenic call [1] did it give?
**A.** inactive; negative

**Q.** And the mutagenic call (Test System: AMES SALMONELLA TYPHIMURIUM, Strain/Indicator: TA98, Metabolic Activation: RAT, LIVER, S-9, PHENOBARBITAL, Method: STANDARD PLATE)?
**A.** inactive; negative

**Q.** And the mutagenic call [3]?
**A.** inactive; negative

**Q.** What about the mutagenic call (Test System: AMES SALMONELLA TYPHIMURIUM, Strain/Indicator: TA100, Metabolic Activation: RAT, LIVER, S-9, PHENOBARBITAL, Method: STANDARD PLATE) of the same compound?
**A.** inactive; negative

**Q.** How did the mutagenic call [4] turn out when `O.O.O=C([O-])C(=O)[O-].O=C([O-])C(=O)[O-].[K+].[K+].[Pt+2]` was run?
**A.** inactive; negative

**Q.** What about the mutagenic call (Test System: AMES SALMONELLA TYPHIMURIUM, Strain/Indicator: TA98, Metabolic Activation: RAT, LIVER, S-9, AROCLOR 1254, Method: PREINCUBATION) of the same compound?
**A.** inactive; negative

**Q.** And the mutagenic call [2]?
**A.** inactive; negative

**Q.** What about the mutagenic call (Test System: AMES SALMONELLA TYPHIMURIUM, Strain/Indicator: TA100, Metabolic Activation: RAT, LIVER, S-9, AROCLOR 1254, Method: PREINCUBATION) of the same compound?
**A.** inactive; negative

**Q.** For `Cc1ccc(/C(C#N)=C\C=C\c2ccccc2[N+](=O)[O-])cc1`, which mutagenic call (Test System: AMES SALMONELLA TYPHIMURIUM, Strain/Indicator: TA97A, Metabolic Activation: NONE, Method: STANDARD PLATE) is on record?
**A.** active; positive

**Q.** With `c1ccc2c(c1)ccc1c2ccc2ccc3ccccc3c21` as the compound, how does the mutagenic call (Test System: AMES SALMONELLA TYPHIMURIUM, Strain/Indicator: TA100, Metabolic Activation: RAT, LIVER, MICROSOMES, AROCLOR 1254, Method: STANDARD PLATE) read?
**A.** active; positive

**Q.** What about the mutagenic call (Test System: AMES SALMONELLA TYPHIMURIUM, Strain/Indicator: TA100, Metabolic Activation: RAT, LIVER, MICROSOMES, BENZO[C]CHRYSENE, Method: STANDARD PLATE) of the same compound?
**A.** inactive; negative

**Q.** And the mutagenic call (Test System: AMES SALMONELLA TYPHIMURIUM, Strain/Indicator: TA100, Metabolic Activation: RAT, LIVER, MICROSOMES, Method: STANDARD PLATE)?
**A.** inactive; negative
